Source: ChEMBL document CHEMBL1124571, “Cardiac glycoside-like structure and function of 5 beta,14 beta-pregnanes” (J Med Chem, 1989)

Molecular target: Sodium/potassium-transporting ATPase
Assay: Compound is evaluated for inhibition of specific binding of [3H]ouabain to membranes from dog heart
Parameters: species or system Canis lupus familiaris

SMILES | IC50 [µM]
CC(=O)[C@H]1CC[C@@]2(C)[C@@H](CC[C@@H]3[C@@H]2CC[C@]2(C)[C@@H](C(C)=O)CC[C@@]32O)C1 | 20
CC(=O)[C@H]1CC[C@@]2(O)[C@@H]3CC[C@H]4C[C@@H](O)CC[C@]4(C)[C@H]3CC[C@]12C | 21
CC(=O)[C@@H]1CC[C@@]2(C)[C@@H](CC[C@@H]3[C@@H]2CC[C@]2(C)C([C@H](C)O)CC[C@@]32O)C1 (stereo partly drawn) | 6
C[C@H](O)[C@H]1CC[C@@]2(O)[C@@H]3CCC4C[C@@H](OC5CC(O)C(O)C(CO)O5)CC[C@]4(C)[C@H]3CC[C@]12C (stereo in doubt) | 0.06
CC(O)[C@H]1CC[C@@]2(O)[C@@H]3CCC4C[C@@H](O)CC[C@]4(C)[C@H]3CC[C@]12C (stereo partly drawn) | 6
CC(=O)[C@H]1CCC2(O)C3CCC4CC(O)CCC4(C)C3CCC12C (stereo partly drawn) | > 400
CC(=O)[C@H]1CC[C@@]2(O)[C@@H]3CC[C@H]4CC(=O)CC[C@]4(C)[C@H]3CC[C@]12C | 46
C[C@H](O)[C@H]1CC[C@@]2(O)[C@@H]3CCC4C[C@@H](OC5CC(O)C(O)C(CO)O5)CC[C@]4(C)[C@H]3CC[C@]12C (stereo in doubt; 5) | 0.4
